In patent publication US8703467B2 (priority 2004, dated 2014):
Read-outs that look alike come from different tables or passages of the source.

Tested on: mice
Procedure: A formalin-inactivated and a double-inactivated (formalin+UV-irradiation) RRV candidate vaccine was adjusted to 10 μg per dose, and then diluted in 4 fold steps. Each dilution was injected into a group of 10 mice. After 3 weeks the mice were boostered with the corresponding amount of the vaccine. Blood samples were drawn at week 3, before the booster, and at week 6, 3 weeks after the booster. The sera were analyzed by a RRV antibody ELISA. The effective dose 50 (ED50), this is the antigen dose which is sufficient to induce seroconversion in 50% of the immunized mice, was then calculated.

Formalin
number of mice with ELISA-Titer 10^1 (Week 3, N 60): 8
number of mice with ELISA-Titer 10^2 (Week 3, N 60): 8
number of mice with ELISA-Titer 10^3 (Week 3, N 60): 9
number of mice with ELISA-Titer 10^4 (Week 3, N 60): 0
number of mice with ELISA-Titer 10^5 (Week 3, N 60): 0
number of mice with ELISA-Titer 10^6 (Week 3, N 60): 0
number of mice with ELISA-Titer 10^7 (Week 3, N 60): 0
number of mice with ELISA-Titer 10^8 (Week 3, N 60): 0
number of mice with ELISA-Titer <10^1 (Week 3, N 60): 35
number of mice with ELISA-Titer 10^4 (Week 3, N 60, listed as formalin group): no mouse
number of mice with ELISA-Titer 10^1 (Week 6, after booster, N 60): 7
number of mice with ELISA-Titer 10^2 (Week 6, after booster, N 60): 5
number of mice with ELISA-Titer 10^3 (Week 6, after booster, N 60): 15
number of mice with ELISA-Titer 10^4 (Week 6, after booster, N 60): 11
number of mice with ELISA-Titer 10^5 (Week 6, after booster, N 60): 8
number of mice with ELISA-Titer 10^6 (Week 6, after booster, N 60): 0
number of mice with ELISA-Titer 10^7 (Week 6, after booster, N 60): 0
number of mice with ELISA-Titer 10^8 (Week 6, after booster, N 60): 0
number of mice with ELISA-Titer <10^1 (Week 6, after booster, N 60): 14
ED50 Week 6 (Booster) (mice, 3 weeks after the booster): 33 ng
ED50 Week 3 (mice, before the booster, antigen dose inducing seroconversion in 50% of immunized mice): 635 ng
